Measurements from patent US20120095739A1, “METHOD FOR DETERMINING THE EFFICACY OF A COMBINATION THERAPY” (priority 2009, published 2012).

Tested on: HIV-1
Settings: double robust estimation; for Weight (drug weight, PI): difference in viral load response (log scale) vs lopinavir after 8 weeks of stable treatment
From the text: Therefore, statistical models were applied to handle these differences. […] E.g.

| Substance | difference in viral load change vs patients taking lopinavir (after 8 weeks of stable treatment) | Weight (drug weight, PI) |
| --- | --- | --- |
| atazanavir [ATV/r] | −0.02 log viral load | −0.02 |
| lopinavir [LPV/r] | – | 0 |
